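Tested at 5 concentrations; 48 h exposure; 96-well plates; endpoints linearly interpolated, else capped at highest concentration. GI50 is the concentration that inhibits growth by half.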 The source made the active and inactive calls. No stated cut-off is given here; in the data, active = GI50 up to about 1.1 µM and inactive = higher.
How the values were obtained:
Assay in all cases: NCI tumour cell line growth inhibition, 48 h
[1] = system: HOP-18
[2] = system: OVCAR-5
[3] = system: HL-60
[4] = system: SF-539
[5] = system: Malme-3M
[6] = system: SK-OV-3
[7] = system: DLD-1
[8] = system: SF-268
[9] = system: HCT-116
[10] = system: SNB-75
[11] = system: OVCAR-4
[12] = system: OVCAR-3
[13] = system: SF-295
[14] = system: LXFL 529
[15] = system: HCC 2998
[16] = system: UACC-62
[17] = system: EKVX
[18] = system: UO-31
[19] = system: KM12
[20] = system: IGROV-1
[21] = system: U-251
[22] = system: OVCAR-8
[23] = system: SNB-78
[24] = system: A549
[25] = system: SK-MEL-28
[26] = system: HOP-92
[27] = system: NCI-H460
[28] = system: SN12C
[29] = system: CAKI-1
[30] = system: UACC-257
[31] = system: ACHN
[32] = system: NCI-H23
[33] = system: MOLT-4
[34] = system: SK-MEL-5
[35] = system: A498
[36] = system: COLO 205
[37] = system: RPMI-8226
[38] = system: CCRF-CEM
[39] = system: 786-0
[40] = system: TK-10
[41] = system: NCI-H226
[42] = system: HCT-15
[43] = system: SNB-19
[44] = system: KM-20L2
[45] = system: HOP-62
[46] = system: DMS-273
[47] = system: M14
[48] = system: HT-29
[49] = system: K562
[50] = system: SW-620
[51] = system: M19-MEL
[52] = system: NCI-H522
[53] = system: RXF 393
[54] = system: DU-145
[55] = system: LOX IMVI
[56] = system: XF498
[57] = system: SK-MEL-2
[58] = system: SR

## O=C(CCc1n[nH]c(=S)o1)Nc1cc(Cl)ccc1Cl
[1]
  GI50: > 100 µM (inactive)
[2]
  GI50: > 100 µM (inactive)
[3]
  GI50: 30.5 µM (inactive)
[4]
  GI50: > 100 µM (inactive)
[5]
  GI50: > 100 µM (inactive)
[6]
  GI50: > 100 µM (inactive)
[7]
  GI50: 79.3 µM (inactive)
[8]
  GI50: 56.6 µM (inactive)
[9]
  GI50: 16.1 µM (inactive)
[10]
  GI50: > 100 µM (inactive)
[11]
  GI50: > 100 µM (inactive)
[12]
  GI50: > 100 µM (inactive)
[13]
  GI50: > 100 µM (inactive)
[14]
  GI50: 76.4 µM (inactive)
[15]
  GI50: > 100 µM (inactive)
[16]
  GI50: > 100 µM (inactive)
[17]
  GI50: > 100 µM (inactive)
[18]
  GI50: > 100 µM (inactive)
[19]
  GI50: > 100 µM (inactive)
[20]
  GI50: > 100 µM (inactive)
[21]
  GI50: 34.4 µM (inactive)
[22]
  GI50: > 100 µM (inactive)
[23]
  GI50: > 100 µM (inactive)
[24]
  GI50: 50.6 µM (inactive)
[25]
  GI50: > 100 µM (inactive)
[26]
  GI50: > 100 µM (inactive)
[27]
  GI50: 51.3 µM (inactive)
[28]
  GI50: > 100 µM (inactive)
[29]
  GI50: > 100 µM (inactive)
[30]
  GI50: > 100 µM (inactive)
[31]
  GI50: 61.1 µM (inactive)
[32]
  GI50: > 100 µM (inactive)
[33]
  GI50: > 100 µM (inactive)
[34]
  GI50: > 100 µM (inactive)
[35]
  GI50: > 100 µM (inactive)
[36]
  GI50: > 100 µM (inactive)
[37]
  GI50: 19.1 µM (inactive)
[38]
  GI50: 33.8 µM (inactive)
[39]
  GI50: 29.6 µM (inactive)
[40]
  GI50: > 100 µM (inactive)
[41]
  GI50: > 100 µM (inactive)
[42]
  GI50: 20.7 µM
[43]
  GI50: > 100 µM (inactive)
[44]
  GI50: 48.2 µM (inactive)
[45]
  GI50: > 100 µM (inactive)
[46]
  GI50: 19.1 µM (inactive)
[47]
  GI50: > 100 µM (inactive)
[48]
  GI50: 52.8 µM (inactive)
[49]
  GI50: 23.9 µM (inactive)
[50]
  GI50: 15.3 µM (inactive)
[51]
  GI50: > 100 µM (inactive)

## CCOC(=O)/C(=C\c1ccc(O)c(OC)c1)C(=O)c1ccccc1
[1]
  GI50: 38.9 µM (inactive)
[2]
  GI50: 26.8 µM (inactive)
[3]
  GI50: 10.4 µM (inactive)
[4]
  GI50: 13.8 µM (inactive)
[5]
  GI50: 18.6 µM (inactive)
[6]
  GI50: > 42.8 µM (inactive)
[7]
  GI50: 17.8 µM (inactive)
[8]
  GI50: 9.62 µM (inactive)
[9]
  GI50: 10.6 µM (inactive)
[10]
  GI50: 20.2 µM (inactive)
[11]
  GI50: 13.9 µM (inactive)
[12]
  GI50: 26.9 µM (inactive)
[13]
  GI50: 18.9 µM (inactive)
[14]
  GI50: 10.6 µM (inactive)
[15]
  GI50: 19.6 µM (inactive)
[16]
  GI50: 13.7 µM (inactive)
[17]
  GI50: > 38.9 µM (inactive)
[18]
  GI50: 23 µM (inactive)
[52]
  GI50: 7.5 µM (inactive)
[19]
  GI50: 11.6 µM (inactive)
[20]
  GI50: 19.2 µM (inactive)
[21]
  GI50: 13.5 µM (inactive)
[22]
  GI50: 11.7 µM (inactive)
[23]
  GI50: 2.56 µM (inactive)
[53]
  GI50: 22.7 µM (inactive)
[24]
  GI50: 18.2 µM (inactive)
[25]
  GI50: 9.75 µM (inactive)
[26]
  GI50: 21.3 µM (inactive)
[27]
  GI50: 22.2 µM (inactive)
[28]
  GI50: 11.1 µM (inactive)
[29]
  GI50: 23.9 µM (inactive)
[30]
  GI50: 18.4 µM (inactive)
[31]
  GI50: 15.8 µM (inactive)
[32]
  GI50: 8.22 µM (inactive)
[54]
  GI50: 23.1 µM (inactive)
[33]
  GI50: 12.4 µM (inactive)
[55]
  GI50: 7.21 µM (inactive)
[34]
  GI50: 13.3 µM (inactive)
[35]
  GI50: 17 µM (inactive)
[36]
  GI50: 36.1 µM (inactive)
[37]
  GI50: 9.77 µM (inactive)
[38]
  GI50: 7.5 µM (inactive)
[39]
  GI50: 16.7 µM (inactive)
[40]
  GI50: 25.9 µM (inactive)
[41]
  GI50: 23.2 µM (inactive)
[42]
  GI50: 8.75 µM
[56]
  GI50: 27.6 µM (inactive)
[43]
  GI50: 16.5 µM (inactive)
[44]
  GI50: > 41.7 µM (inactive)
[45]
  GI50: > 10 µM (inactive)
[57]
  GI50: 12.5 µM (inactive)
[58]
  GI50: 11 µM (inactive)
[47]
  GI50: 19.1 µM (inactive)
[48]
  GI50: 24.7 µM (inactive)
[49]
  GI50: 9.59 µM (inactive)
[50]
  GI50: 13.1 µM (inactive)
[51]
  GI50: 20.8 µM (inactive)

From ChEMBL document CHEMBL1201862, “PubChem BioAssay data set” (2004)
